From US10106526B2, “Inhibitors of cyclin-dependent kinase 7 (CDK7)” (SYROS PHARMACEUTICALS, INC., priority 2014, dated 2018) come the findings set out here.

The target in assay [1] is CDK7/Cyclin H/MAT1 trimeric complex (Homo sapiens, UniProt P50613). The experiment in a line: CDK7 kinase assay, Caliper/LabChip EZ Reader (Biortus Biosciences). It counts as biochemical. As to conditions: CDK7/Cyclin H/MAT1 10 nM, ATP 2 mM, FAM-CDK7tide 2 μM, 30 min incubation, read-out: CDK7 Inhibition (IC50). Here is the method: Compounds of the invention were further assayed for CDK7 activity at Biortus Biosciences (Jiangyin, Jiangsu Province, P.R. of China) using a CDK7 kinase assay developed with a Caliper/LabChip EZ Reader (Perkin Elmer, Waltham, Mass.). […] The incubation period was chosen such that the total fraction of phosphorylated peptide product produced was <20% for the uninhibited kinase.
CDK7/Cyclin H/MAT1 trimeric complex, sequence (P50613 whole entry): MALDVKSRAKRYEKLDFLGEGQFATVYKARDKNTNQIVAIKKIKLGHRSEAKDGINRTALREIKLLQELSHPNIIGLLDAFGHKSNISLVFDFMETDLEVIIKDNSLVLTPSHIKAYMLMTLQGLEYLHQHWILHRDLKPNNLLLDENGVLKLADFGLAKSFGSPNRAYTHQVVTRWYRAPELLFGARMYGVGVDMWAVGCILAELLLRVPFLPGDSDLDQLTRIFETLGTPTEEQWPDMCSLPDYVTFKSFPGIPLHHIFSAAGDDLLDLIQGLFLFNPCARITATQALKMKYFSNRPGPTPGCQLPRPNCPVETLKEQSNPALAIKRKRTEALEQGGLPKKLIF
CDK7/Cyclin H/MAT1 trimeric complex, sequence (P51946 whole entry partner): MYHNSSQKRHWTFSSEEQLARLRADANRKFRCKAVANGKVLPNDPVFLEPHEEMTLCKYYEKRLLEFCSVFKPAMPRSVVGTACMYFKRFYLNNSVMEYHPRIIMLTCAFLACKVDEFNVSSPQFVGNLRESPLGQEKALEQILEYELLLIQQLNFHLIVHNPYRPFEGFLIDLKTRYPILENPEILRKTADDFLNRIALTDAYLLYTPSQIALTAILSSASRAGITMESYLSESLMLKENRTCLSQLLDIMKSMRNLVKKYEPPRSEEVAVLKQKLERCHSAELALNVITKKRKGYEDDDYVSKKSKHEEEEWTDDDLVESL
CDK7/Cyclin H/MAT1 trimeric complex, sequence (P51948 whole entry partner): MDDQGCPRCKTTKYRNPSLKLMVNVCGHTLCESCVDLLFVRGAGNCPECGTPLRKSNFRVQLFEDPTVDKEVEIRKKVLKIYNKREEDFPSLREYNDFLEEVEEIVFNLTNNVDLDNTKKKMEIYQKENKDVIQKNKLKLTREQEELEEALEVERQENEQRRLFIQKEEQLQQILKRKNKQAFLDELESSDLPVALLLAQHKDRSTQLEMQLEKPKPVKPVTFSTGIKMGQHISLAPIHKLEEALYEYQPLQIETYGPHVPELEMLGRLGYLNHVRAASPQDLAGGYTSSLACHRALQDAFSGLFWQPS

For a further assay, the system named is A673 cells. The experiment in a line: Inhibition of proliferation of A673 cells (CyQUANT, 72 hour). The settings on record: 72 hour proliferation. Format: cell-based, human. The method in brief:
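Human Ewing's sarcoma A673 cells in DMEM + 10% FBS + 1 mM sodium pyruvate, 37 °C, 5% CO2, exposed to compounds from 4 μM to 126.4 pM (0.5 log dilutions) for 72 h. Proliferation read by CyQUANT; IC50 reported as binned categories.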

For `CCc1cnc(N[C@@H]2CCC[C@](C)(NC(=O)c3ccc(NC(=O)/C=C/CN(C)C)cn3)C2)nc1-c1c[nH]c2ccccc12` [Compound 407, 5-[[(E)-4-(dimethylamino)but-2-enoyl]amino]-N-[(1S,3R)-3-[[5-ethyl-4-(1H-indol-3-yl)pyrimidin-2-yl]amino]-1-methyl-cyclohexyl]pyridine-2-carboxamide], the concentration for half-maximal inhibition (IC50) in assay [1] was below 100 nM; in the assay with A673 cells (Homo sapiens), below 500 nM.

As to `CN(C)C/C=C/C(=O)Nc1ccc(CN[C@H]2CCC[C@@H](Nc3ncc(Cl)c(-c4c[nH]c5ccccc45)n3)C2)nc1` [Compound 261], the IC50 is below 100 nM in assay [1] and below 500 nM in the assay with A673 cells (Homo sapiens).

Regarding `CN(C)C/C=C/C(=O)Nc1ccc(C(=O)N[C@@]2(C)CCC[C@@H](Nc3ncc(Cl)c(-c4c[nH]c5ccccc45)n3)C2)nc1` [Compound 267, N-((1S,3R)-3-(5-chloro-4-(1H-indol-3-yl)pyrimidin-2-ylamino)-1-methylcyclohexyl)-5-((E)-4-(dimethylamino)but-2-enamido)picolinamide], the 50% inhibitory concentration (IC50) in assay [1] is below 100 nM; in the assay on A673 cells (Homo sapiens), below 500 nM.

In the case of `CCc1cnc(N[C@@H]2CCC[C@](C)(NCc3ccc(NC(=O)/C=C/CN(C)C)cn3)C2)nc1-c1c[nH]c2ccccc12` [Compound 411, (E)-4-(dimethylamino)-N-[6-[[[(1S,3R)-3-[[5-ethyl-4-(1H-indol-3-yl)pyrimidin-2-yl]amino]-1-methylcyclohexyl]amino]methyl]-3-pyridyl]but-2-enamide], the IC50 in assay [1] is below 100 nM; with A673 cells (Homo sapiens), below 500 nM.

`C=CC(=O)N1CCN(C2CCCC(Nc3ncc(Cl)c(-c4c[nH]c5ccccc45)n3)C2)C(C)C1` (centres unmarked) [Compound 260]: the figures for the IC50 (in assay [1]; in the assay with A673 cells) were below 100 nM and below 500 nM, respectively.

For the molecule `CN(C)C/C=C/C(=O)N1CCC[C@@H](NCc2ccc(Nc3ncc(Cl)c(-c4c[nH]c5ccccc45)n3)cc2)C1` [Compound 415, (R,E)-1-(3-((4-((5-chloro-4-(1H-indol-3-yl)pyrimidin-2-yl)amino)benzyl)amino)piperidin-1-yl)-4-(dimethylamino)but-2-en-1-One], the IC50 in assay [1] is below 100 nM; in the assay on A673 cells (Homo sapiens), below 500 nM.

As to `C=CC(=O)N1CCN([C@H]2CCC[C@@H](Nc3ncc(Cl)c(-c4n[nH]c5ccccc45)n3)C2)CC1` [compound 388], the IC50 in assay [1] was 100 to 1000 nM; in the assay on A673 cells, below 500 nM.

Turning to `CN(C)C/C=C/C(=O)N1CCN([C@H]2CCC[C@@H](Nc3ncc(Cl)c(-c4cnc5ccccn45)n3)C2)CC1` [compound 400], the IC50 in assay [1] was below 100 nM; with A673 cells, below 500 nM.

Consider `CCc1cnc(N[C@@H]2CCC[C@](C)(NCc3ccc(NC(=O)/C=C/CN(C)C)cn3)C2)nc1-c1n[nH]c2ccccc12` [Compound 413, (E)-4-(dimethylamino)-N-[6-[[[(1S,3R)-3-[[5-ethyl-4-(1H-indazol-3-yl)pyrimidin-2-yl]amino]-1-methyl-cyclohexyl]amino]methyl]-3-pyridyl]but-2-enamide], for which the IC50 is below 100 nM in assay [1] and below 500 nM in the assay on A673 cells (Homo sapiens).

On to `CN(C)C/C=C/C(=O)Nc1ccc(C(=O)N[C@H]2CCC[C@@H](Nc3ncc(Cl)c(C4C(=O)Nc5ccccc54)n3)C2)nc1` (stereo partly drawn) [Compound 282, N-((1S,3R)-3-(5-Chloro-4-(2-oxoindolin-3-yl)pyrimidin-2-ylamino)cyclohexyl)-5-((E)-4-(dimethylamino)but-2-enamido)picolinamide], for which the IC50 in assay [1] was 100 to 1000 nM; in the assay with A673 cells (Homo sapiens) it was below 500 nM.

With `C=CC(=O)N1CCN([C@H]2CCC[C@@H](Nc3ncc(Cl)c(-c4c[nH]c5c(OC)cccc45)n3)C2)CC1` [compound 395], the IC50 in assay [1] was 100 to 1000 nM; with A673 cells, below 500 nM.

As for `Cc1cnc(N[C@@H]2CCC[C@H](NC(=O)c3ccc(NC(=O)/C=C/CN(C)C)cn3)C2)nc1-c1c[nH]c2ccccc12` [Compound 265, N-((1S,3R)-3-((4-(1H-indol-3-yl)-5-methylpyrimidin-2-yl)amino)cyclohexyl)-5-((E)-4-(dimethylamino)but-2-enamido)picolinamide], the IC50 in assay [1] was below 100 nM; with A673 cells (Homo sapiens) it was below 500 nM.

As for `CN(C)C/C=C/C(=O)N1CC(F)(F)C[C@H]1C(=O)N[C@H]1CCC[C@@H](Nc2ncc(C#N)c(-c3c[nH]c4ccccc34)n2)C1` [compound 396], the IC50 in assay [1] was below 100 nM; in the assay on A673 cells, below 500 nM.

In the case of `C=CC(=O)NC1CC2CCC(C1)N2C1CCCC(Nc2ncc(Cl)c(-c3c[nH]c4ccccc34)n2)C1` (mixture of isomers) [Compound 259], the IC50 in assay [1] was 100 to 1000 nM; with A673 cells, below 500 nM.

On to `C=CC(=O)N1CCN([C@H]2CCC[C@@H](Nc3ncc(Cl)c(-c4c[nH]c5ccccc45)n3)C2)C(=O)C1` [compound 410], for which the values for the IC50 (in assay [1]; in the assay on A673 cells) were below 100 nM and below 500 nM, respectively.

Take `CN(C)C/C=C/C(=O)Nc1ccc(C(=O)N[C@@]2(C)CCC[C@@H](Nc3ncc(C(F)(F)F)c(-c4c[nH]c5ccccc45)n3)C2)nc1` [Compound 399, 5-[[(E)-4-(dimethylamino)but-2-enoyl]amino]-N-[(1S,3R)-3-[[4-(1H-indol-3-yl)-5-(trifluoromethyl)pyrimidin-2-yl]amino]-1-methyl-cyclohexyl]pyridine-2-carboxamide]: the concentration for half-maximal inhibition (IC50) is below 100 nM in assay [1] and below 500 nM in the assay on A673 cells (Homo sapiens).

As for `CCc1cnc(N[C@@H]2CCC[C@H](NC(=O)c3ccc(NC(=O)/C=C/CN(C)C)cn3)C2)nc1-c1c[nH]c2ccccc12` [Compound 262, 5-[[(E)-4-(dimethylamino)but-2-enoyl]amino]-N-[(1S,3R)-3-[[5-ethyl-4-(1H-indol-3-yl)pyrimidin-2-yl]amino]cyclohexyl]pyridine-2-carboxamide], the values for the IC50 (in assay [1]; with A673 cells (Homo sapiens)) were below 100 nM and below 500 nM, respectively.

Consider `C=CC(=O)N1CCN([C@H]2CCC[C@@H](Nc3ncc(Cl)c(-c4c[nH]c5ccc(C)cc45)n3)C2)CC1` [Compound 340, 1-(4-((1S,3R)-3-(5-chloro-4-(5-methyl-1H-indol-3-yl)pyrimidin-2-ylamino)cyclohexyl)piperazin-1-yl)prop-2-en-1-One], for which the half-maximal inhibitory concentration (IC50) is below 100 nM in assay [1] and below 500 nM with A673 cells (Homo sapiens).

Consider `CN(C)C/C=C/C(=O)N1CC(F)(F)C[C@H]1C(=O)N[C@H]1CCC[C@@H](Nc2ncc(Cl)c(-c3n[nH]c4ccccc34)n2)C1` [compound 404], for which the figures for the IC50 (in assay [1]; in the assay on A673 cells) were below 100 nM and below 500 nM, respectively.

As to `C=CC(=O)Nc1cnc(CN[C@H]2CCC[C@@H](Nc3ncc(Cl)c(-c4n[nH]c5ccccc45)n3)C2)nc1` [compound 405], the IC50 in assay [1] was below 100 nM; in the assay with A673 cells, below 500 nM.

With `C=CC(=O)N[C@H]1CCN([C@H]2CCC[C@@H](Nc3ncc(Cl)c(-c4c[nH]c5ccccc45)n3)C2)C1` [Compound 370, N—((S)-1-((1S,3R)-3-((5-chloro-4-(1H-indol-3-yl)pyrimidin-2-yl)amino)cyclohexyl)pyrrolidin-3-yl)acrylamide], the results for the IC50 (in assay [1]; in the assay on A673 cells (Homo sapiens)) were below 100 nM and below 500 nM, respectively.

For the molecule `CN(C)C/C=C/C(=O)Nc1ccc(C(=O)N[C@H]2CCC[C@@H](Nc3ncc(Cl)c(-c4cccc5c4ccn5C)n3)C2)nc1` [Compound 269, N-((1S,3R)-3-((5-chloro-4-(1-methyl-1H-indol-4-yl)pyrimidin-2-yl)amino)cyclohexyl)-5-((E)-4-(dimethylamino)but-2-enamido)picolinamide], the half-inhibitory concentration (IC50) in assay [1] is below 100 nM; with A673 cells (Homo sapiens), below 500 nM.
